# Measured values published in patent US20240368181A1, “QUINOXALINE DERIVATIVES AND USES THEREOF” (Black Diamond Therapeutics, Inc., priority 2021, published 2024).
# What was measured:
# Format in all cases: cell-based
# [1] = tested on: RT-112 (FGFR3-Tacc3 fusion) cells; experiment: cell proliferation assay (CellTiterGlo), RT-112 cells; conditions: Homo sapiens, RT-112, RT112 cells, 72 hours
# From the text: (§1) In some embodiments, the biological assay assess the ability of the compounds to inhibit cell proliferation.
# (§2) In some embodiments, cells (e.g., SNU-16 (FGFR2-amplification) cells) may be suspended and dispensed in plates. In some embodiments, cells (e.g., UM-UC-14 (FGFR3-S249C) cells) may be suspended and dispensed in plates. In some embodiments, cells (e.g., DMS-114 (FGFR1 overexpression) cells) may by suspended and dispensed in plates. In some embodiments, cells (e.g., RT-112 (FGFR3-Tacc3 fusion) cells) may be suspended and dispensed in plates. In some embodiments, to determine the effect of the compounds of the present disclosure on cell proliferation, cells (e.g., SNU-16, UM-UC-14, DMS-114 and […] cells) may be incubated in the presence of vehicle control (e.g., DMSO) or a compound of the present disclosure at varying concentrations and the inhibition of cell growth may be determined by luminescent quantification (e.g., of intracellular ATP content using CellTiterGlo), according to the manufacturers protocol. In some embodiments, to determine the IC50 values, the vehicle-treated cells were normalized as viable cells and the growth was analyzed using a software (e.g., the CDD Vault software (Collaborative Drug Discovery, Burlingame, CA)).
# [2] = tested on: DMS-114 (FGFR1 overexpression) cells; experiment: cell proliferation assay (CellTiterGlo), DMS-114 cells; conditions: Homo sapiens, DMS-114, 72 h
# From the text: as §1, §2
# [3] = tested on: UM-UC-14 (FGFR3-S249C) cells; experiment: cell proliferation assay (CellTiterGlo), UM-UC-14 cells; conditions: UMUC14, 72 h
# From the text: as §1, §2
# [4] = tested on: SNU-16 (FGFR2-amplification) cells; experiment: cell proliferation assay (CellTiterGlo), SNU-16 cells; conditions: Homo sapiens, 72 hours
# From the text: as §1, §2
IC50 [4],SMILES,IC50 [1],IC50 [2],IC50 [3]
–,Cc1nc2ccc(Oc3ccc4ncc(-c5cnn(CC6(O)CC6)c5)nc4c3C3CCOC3)c(F)c2[nH]1 (stereo not shown) [Compound 70],0.02 to 0.1 µM,0.02 to 0.1 µM,0.02 to 0.1 µM
–,Cc1nc2ccc(Oc3ccc4ncc(-c5cnn(CC6CC(F)(F)C6)c5)nc4c3C3=CCOC3(C)C)cc2[nH]1 [Compound 71],0.1 to 0.4 µM,0.1 to 0.4 µM,0.02 to 0.1 µM
–,Cc1nc2ccc(Oc3ccc4ncc(-c5cnn(CC6CC(F)(F)C6)c5)nc4c3C3CCOC3)c(F)c2[nH]1 (stereo not shown) [Compound 72],< 0.02 µM,0.02 to 0.1 µM,0.02 to 0.1 µM
–,Cc1nc2ccc(Oc3ccc4ncc(-c5cnn(C6CC7(C6)CC(F)(F)C7)c5)nc4c3Cl)cc2[nH]1 [Compound 101],0.1 to 0.4 µM,≥ 0.4 µM,0.1 to 0.4 µM
–,Cc1nc2ccc(Oc3ccc4ncc(-c5cnn(CC6(O)CC(O)C6)c5)nc4c3Cl)c(F)c2[nH]1 (stereo not shown) [Compound 102],< 0.02 µM,0.02 to 0.1 µM,< 0.02 µM
–,Cc1nc2ccc(Oc3ccc4ncc(-c5cnn(CC6(O)CC6)c5)nc4c3-n3ccnc3)c(F)c2[nH]1 [Compound 103],0.1 to 0.4 µM,≥ 0.4 µM,0.1 to 0.4 µM
–,Cc1nc2ccc(Oc3ccc4ncc(-c5cnn([C@@H](C)C6CCC(F)(F)CC6)c5)nc4c3Cl)cc2[nH]1 [Compound 104],0.02 to 0.1 µM,≥ 0.4 µM,0.02 to 0.1 µM
–,Cc1nc2ccc(Oc3ccc4ncc(-c5cnn([C@H](C)C6CCC(F)(F)CC6)c5)nc4c3Cl)cc2[nH]1 [Compound 105],0.02 to 0.1 µM,≥ 0.4 µM,0.02 to 0.1 µM
–,COC1CCN(C(=O)Cn2cc(-c3cnc4ccc(Oc5ccc6nc(C)[nH]c6c5)c(Cl)c4n3)cn2)CC1 [Compound 113],0.02 to 0.1 µM,≥ 0.4 µM,0.02 to 0.1 µM
–,CC(=O)N1CCN(C(=O)Cn2cc(-c3cnc4ccc(Oc5ccc6nc(C)[nH]c6c5)c(Cl)c4n3)cn2)CC1 [Compound 114],0.1 to 0.4 µM,≥ 0.4 µM,≥ 0.4 µM
–,Cc1nc2ccc(Oc3ccc4ncc(-c5cnn(CC6CCS(=O)(=O)CC6)c5)nc4c3S(C)(=O)=O)cc2[nH]1 [Compound 116],≥ 0.4 µM,≥ 0.4 µM,0.1 to 0.4 µM
–,Cc1nc2ccc(Oc3ccc4ncc(-c5cnn(CC6CC(F)(F)C6)c5)nc4c3N3CCCC3=O)cc2[nH]1 [Compound 117],≥ 0.4 µM,≥ 0.4 µM,≥ 0.4 µM
–,Cc1nc2ccc(Oc3ccc4ncc(-c5cnn(C[C@H](C)O)c5)nc4c3Cl)c(F)c2[nH]1 [Compound 118],< 0.02 µM,0.1 to 0.4 µM,< 0.02 µM
–,Cc1nc2ccc(Oc3ccc4ncc(-c5cnn(CC6CC(F)(F)C6)c5)nc4c3NC(=O)CCCCl)cc2[nH]1 [Compound 120],0.1 to 0.4 µM,≥ 0.4 µM,0.1 to 0.4 µM
–,Cc1nc2ccc(Oc3ccc4ncc(-c5cnn([C@@H](C)CO)c5)nc4c3Cl)cc2[nH]1 [Compound 125],0.02 to 0.1 µM,≥ 0.4 µM,0.02 to 0.1 µM
–,Cc1nc2ccc(Oc3ccc4ncc(-c5cnn(CC6(O)CC6)c5)nc4c3I)cc2[nH]1 [Compound 129],0.02 to 0.1 µM,≥ 0.4 µM,0.02 to 0.1 µM
0.02 to 0.1 µM,Cc1nc2ccc(Oc3ccc4ncc(-c5cnn(C[C@@H](C)O)c5)nc4c3Cl)cc2[nH]1 [Compound 132],0.02 to 0.1 µM,–,–
≥ 0.4 µM,Cc1nc2ccc(Oc3ccc4ncc(-c5cnn(CC6CC(F)(F)C6)c5)nc4c3-n3c(C)ccc3C)cc2[nH]1 [Compound 133],0.1 to 0.4 µM,–,–
0.02 to 0.1 µM,Cc1nc2ccc(Oc3ccc4ncc(-c5cnn(CC6CC(F)(F)C6)c5)nc4c3C3CCOC3)cc2[nH]1 (stereo not shown) [Compound 134],0.02 to 0.1 µM,–,–
< 0.02 µM,Cc1nc2ccc(Oc3ccc4ncc(-c5cnn(C6CCN(C)C7(CC7)C6)c5)nc4c3Cl)c(F)c2[nH]1 (stereo not shown) [Compound 135],< 0.02 µM,–,–
–,Cc1nc2ccc(Oc3ccc4ncc(-c5cnn(C(C)(C)CO)c5)nc4c3Cl)c(F)c2[nH]1 [Compound 142],< 0.02 µM,0.1 to 0.4 µM,< 0.02 µM
–,Cc1nc2ccc(Oc3ccc4ncc(-c5cnn(CC(=O)N6CCOCC6)c5)nc4c3Cl)c(F)c2[nH]1 [Compound 155],–,0.02 to 0.1 µM,< 0.02 µM
–,Cc1nc2ccc(Oc3ccc4ncc(-c5cnn(C6CC(=O)C6)c5)nc4c3Cl)c(F)c2[nH]1 [Compound 156],–,0.02 to 0.1 µM,< 0.02 µM
–,Cc1nc2cc(Oc3ccc4ncc(-c5cnn(CC6CC(F)(F)C6)c5)nc4c3C(F)F)ccc2[nH]1 [Compound 157],–,0.1 to 0.4 µM,0.02 to 0.1 µM
–,Cc1nc2cc(Oc3ccc4ncc(-c5cnn(CC6CC(F)(F)C6)c5)nc4c3C=O)ccc2[nH]1 [Compound 158],–,≥ 0.4 µM,≥ 0.4 µM

IC50 [4],SMILES,IC50 [1],IC50 [2],IC50 [3]
–,Cc1nc2ccc(Oc3ccc4ncc(-c5cnn(CC6CC(F)(F)C6)c5)nc4c3N)cc2[nH]1 [Compound 159],–,≥ 0.4 µM,≥ 0.4 µM
–,Cc1nc2ccc(Oc3ccc4ncc(-c5cnn(C(C)(C)C6CC(O)C6)c5)nc4c3Cl)cc2[nH]1 (stereo not shown) [Compound 160],–,0.1 to 0.4 µM,0.02 to 0.1 µM
–,Cc1nc2ccc(Oc3ccc4ncc(-c5cnn(C6CC7(CC(O)C7)C6)c5)nc4c3Cl)cc2[nH]1 (stereo not shown) [Compound 161],–,≥ 0.4 µM,0.02 to 0.1 µM
–,Cc1nc2ccc(Oc3ccc4ncc(-c5cnn(CC6(O)CC6)c5)nc4c3Cl)c(F)c2[nH]1 [Compound 162],–,0.02 to 0.1 µM,0.02 to 0.1 µM
–,Cc1nc2ccc(Oc3ccc4ncc(-c5cnn(C6CCN(C)C7(CC7)C6)c5)nc4c3Cl)cc2[nH]1 (stereo not shown) [Compound 163],–,0.1 to 0.4 µM,0.02 to 0.1 µM
–,Cc1nc2ccc(Oc3ccc4ncc(-c5cnn(CC6(O)CC6)c5)nc4c3C3=CCCC3)cc2[nH]1 [Compound 164],–,0.02 to 0.1 µM,0.02 to 0.1 µM
–,Cc1nc2ccc(Oc3ccc4ncc(-c5cnn(C6CC7(CC(=O)C7)C6)c5)nc4c3Cl)cc2[nH]1 [Compound 165],–,≥ 0.4 µM,0.02 to 0.1 µM
–,Cc1nc2ccc(Oc3ccc4ncc(-c5cnn(C[C@H]6C[C@](C)(O)C6)c5)nc4c3Cl)c(F)c2[nH]1 [Compound 166],–,0.1 to 0.4 µM,0.02 to 0.1 µM
–,Cc1nc2ccc(Oc3ccc4ncc(-c5cnn(C[C@H]6C[C@@](C)(O)C6)c5)nc4c3Cl)c(F)c2[nH]1 [Compound 167],–,0.02 to 0.1 µM,< 0.02 µM
–,Cc1nc2ccc(Oc3ccc4ncc(-c5cnn([C@H]6C[C@@](C)(O)C6)c5)nc4c3Cl)cc2[nH]1 [Compound 168],–,≥ 0.4 µM,0.02 to 0.1 µM
–,Cc1nc2ncc(Oc3ccc4ncc(-c5cnn(C6CCC(F)(F)CC6)c5)nc4c3Cl)cc2[nH]1 [Compound 169],–,≥ 0.4 µM,≥ 0.4 µM
–,Cc1nc2ccc(Oc3ccc4ncc(-c5cnn(C6(C)CC=C(F)CC6)c5)nc4c3Cl)cc2[nH]1 (stereo not shown) [Compound 170],–,≥ 0.4 µM,0.1 to 0.4 µM
–,Cc1nc2ccc(Oc3ccc4ncc(-c5cnn(C6(C)CCC(F)(F)CC6)c5)nc4c3Cl)cc2[nH]1 [Compound 171],–,≥ 0.4 µM,0.1 to 0.4 µM
–,Cc1nc2ccc(Oc3ccc4ncc(-c5cnn([C@H]6C[C@H](O)C6)c5)nc4c3Cl)cc2[nH]1 [Compound 172],–,≥ 0.4 µM,0.1 to 0.4 µM
–,Cc1nc2ccc(Oc3ccc4ncc(-c5cnn([C@H]6C[C@@H](O)C6)c5)nc4c3Cl)cc2[nH]1 [Compound 173],–,0.1 to 0.4 µM,0.02 to 0.1 µM
< 0.02 µM,Cc1nc2ccc(Oc3ccc4ncc(-c5cnn(CC(=O)N6CCC(F)(F)C6)c5)nc4c3Cl)c(F)c2[nH]1 [Compound 174],–,0.1 to 0.4 µM,< 0.02 µM
< 0.02 µM,Cc1nc2ccc(Oc3ccc4ncc(-c5cnn([C@H]6C[C@](C)(O)C6)c5)nc4c3Cl)cc2[nH]1 [Compound 175],–,0.1 to 0.4 µM,0.02 to 0.1 µM
0.1 to 0.4 µM,Cc1nc2ccc(Oc3ccc4ncc(-c5cnn(C6CCNC7(CC7)C6)c5)nc4c3Cl)cc2[nH]1 (stereo not shown) [Compound 176],–,0.1 to 0.4 µM,< 0.02 µM
≥ 0.4 µM,Cc1nc2ccc(Oc3ccc4ncc(-c5cnn(C6CCC(F)(F)CC6)c5)nc4c3Cl)nc2[nH]1 [Compound 177],–,≥ 0.4 µM,≥ 0.4 µM
0.02 to 0.1 µM,Cc1nc2ccc(Oc3ccc4ncc(-c5cnn([C@H]6C[C@H](C(F)(F)F)C6)c5)nc4c3Cl)cc2[nH]1 [Compound 178],–,≥ 0.4 µM,≥ 0.4 µM
0.02 to 0.1 µM,Cc1nc2ccc(Oc3ccc4ncc(-c5cnn(C[C@H]6C[C@@](C)(O)C6)c5)nc4c3Cl)cc2[nH]1 [Compound 180],–,≥ 0.4 µM,0.02 to 0.1 µM
< 0.02 µM,Cc1nc2ccc(Oc3ccc4ncc(-c5cnn(C[C@H]6C[C@](C)(O)C6)c5)nc4c3Cl)cc2[nH]1 [Compound 181],–,≥ 0.4 µM,0.02 to 0.1 µM
0.02 to 0.1 µM,Cc1nc2ccc(Oc3ccc4ncc(-c5cnn(C(C)C6CC(F)(F)C6)c5)nc4c3Cl)cc2[nH]1 (stereo not shown) [Compound 182],–,≥ 0.4 µM,0.02 to 0.1 µM
< 0.02 µM,Cc1nc2ccc(Oc3ccc4ncc(-c5cnn(C6CCN(C(=O)N(C)C)CC6)c5)nc4c3Cl)cc2[nH]1 [Compound 261],–,0.02 to 0.1 µM,< 0.02 µM
